What was measured:
[1] = system: patients having major depressive disorder; conditions: cited from earlier work
[2] = system: patients with major depression; conditions: total daily doses of 40 mg, 80 mg or 120 mg; 18 patients on active dose (ref. 10); cited from earlier work
[3] = system: patients having major depressive disorder; assay: Phase 2 clinical trial with NSI-189 (220 patients, SPCD design), retrospective analysis by baseline cognition; format: in vivo, human; conditions: for number needed to treat to achieve one more remission / odds ratio for drug response: 80 mg vs placebo; for odds ratio for drug response: remission at 6 weeks
Procedure: A subsequent Phase 2 study was then performed on 220 patients with major depression (11). In that study, patients were randomized to receive a total daily dose of 40 mg or 80 mg of NSI-189 or placebo in stage 1 of the clinical trial design. […] Treatment in either stage was given for six weeks. This design is termed a Sequential Parallel Clinical Design (SPCD), and is analyzed statistically by combining results in a pre-defined manner for outcomes differences between relevant groups (e.g., drug vs. placebo) in each of the stages individually. There are two depression outcome measures accepted by the United States Food and Drug Administration (FDA) for the evaluation of adults. See the June 2018 FDA draft guidance entitled “Major Depressive Disorder: Developing Drugs for Treatment.” These are the Montgomery-Asberg Depression Rating Scale (MADRS), which was the primary outcome in this study, as well as the Hamilton Depression Rating Scale (HDRS) which was a key secondary outcome measure. […] It was reported that any benefits of NSI-189 on depression and cognition are independent effects (27).
A retrospective analysis of the 220-patient phase 2 study of NSI-189 discussed above was performed. In the study, patients having major depressive disorder were randomized to receive a total daily dose of 40 mg or 80 mg of NSI-189 or placebo in stage 1 (first 6 weeks) of the clinical trial design. […] The remaining of patients continued on their treatment for stage 2 of the trial. Treatment in either stage was given for six weeks. Patients were eligible for study participation if they were between the ages of 18-60 years, with current major depressive disorder of at least 8 weeks duration according to the DSM-5, as diagnosed by the Structured Clinical Interview for the DSM-5 clinical trial version (SCID-5-CT) during the screen and remote assessment visits, and if they were scored at least 20 at screen, remote assessment, and baseline visits on the Montgomery-Asberg Depression Rating Scale (MADRS). The phase 2 study collected cognitive task performance data prior to treatment, and then again after both stage 1 and stage 2 of the treatment protocol. The purpose of doing so was to determine whether treatment with this compound results in improvement in cognitive functioning, as measured by a variety of behavioral measures.
Prior to the inventor's retrospective analysis, there was no consideration as to using behavioral measures to predict treatment outcome nor was there any analysis conducted to this effect. There was no consideration of using cognitive performance as a predictor but only as an outcome measure. […] The tasks in this battery included a simple reaction time (RT) task, a choice RT task, a one-back working memory task, and a visual learning task. Moreover, given the conversion to z-score, a composite cognitive task performance score could be computed by averaging the z-scores for each of the four tasks in the battery. Analyses focused on the MADRS primary outcome of the study, with supporting evidence subsequently produced by examining the HDRS key secondary outcome, as well as the CGI. Statistical analyses focused first on the complete trial (incorporating both stage 1 and stage 2 outcomes), using the SPCD analytic approach reported in the original study and thus aligned could be compared with the original statistical analysis plan. We used linear mixed models to predict change from baseline (at 2, 4, and 6 weeks) in clinical scores and included covariates for time, time x group, time x baseline MADRS and baseline MADRS. These covariates likewise were used in the original study, and thus results here can be compared with the all-comer results reported previously. Statistical significance was thus assessed on the primary outcome (MADRS change from baseline at 6 weeks across the SPCD design) and similar secondary outcomes (HDRS and CGI change from baseline at 6 weeks). […]

For `CC(C)CCNc1ncccc1C(=O)N1CCN(Cc2ccccc2)CC1` [NSI-189, (4-benzylpiperazin-1-yl)-[2-(3-methylbutylamino)pyridin-3-yl]methanone], the “effects on several secondary measures compared to placebo” value ([1]; 40 mg dose, all-comers, not corrected for multiple comparisons) is given as “nominally significant effects”, the “efficacy on any study measure” value ([1]; 80 mg daily dose, entire study population (ref. 11)) is given as “did not demonstrate efficacy” and the “antidepressant efficacy on MADRS primary outcome and HDRS key secondary measure” value ([1]; original all-comer analysis, 40 mg or 80 mg/day, full SPCD analysis or each stage alone (ref. 11)) is given as “failed to demonstrate any evidence of antidepressant efficacy”. For the same molecule, the potential antidepressant efficacy [2] was “promising evidence”, the “change in MADRS scores, either drug arm versus placebo” value ([3]; 40 mg or 80 mg/day, good cognition group (composite score above patient mean), p=0.25) was “no significant differences” and the “change in MADRS scores, 40 mg group versus placebo” value ([3]; 40 mg/day, poor cognition group (cognitive composite score), p=0.39) was “not significant”. For the same molecule, the “durability of MADRS benefit, poor cognition compared to good cognition patients” value ([3]; 80 mg arm from stage 1, composite score, 12 weeks of treatment) was “stable and consistent throughout all 12 weeks of treatment”, the “number needed to treat to achieve one more remission” value ([3]; all-comer sample, 6 weeks, stage 1) was 19.6 and the “odds ratio for drug response” value ([3]; all-comer sample, stage 1) was 1.3. The “number needed to treat to achieve one more remission” value ([3]; poor cognition subpopulation, 6 weeks, stage 1) was 3.2, the “odds ratio for drug response” value ([3]; poor cognition subpopulation, stage 1) was 4.7 and the “change in MADRS scores, 80 mg versus placebo” value (shortened to “change … 80 mg versus placebo”) ([3]; 80 mg/day, choice RT task, lenient cutoff z=+0.5, p=0.12) was “did not yield a significant effect”. The “Cohen's d effect size per MADRS item, 80 mg versus placebo” value ([3]; 80 mg/day, cognitively impaired patients, six weeks, both stages, items 1, 7, 8, 9) was “notable effects”, the “remission rate (score of 10 or less on the MADRS)” value ([3]; 80 mg/day, good cognition patients, 6 weeks, stage 1, chi-square p=0.014 vs poor cognition) was 12% and the “MADRS depression score improvement, 80 mg over placebo” value ([3]; 80 mg/day, late-life depression (LLD) group, 50 years or older) was “greater with 80 mg over placebo”. The “MADRS depression score improvement, 80 mg versus placebo” value ([3]; 80 mg/day, non-LLD group, younger than 50) was “indistinguishable between the two arms”, the “symptom change on the HDRS, 80 mg relative to placebo” value ([3]; 80 mg/day, poor cognition based on choice RT task, p=0.008) was “robust and significant effect” and the “change … 80 mg versus placebo” value ([3]; 80 mg/day, poor cognition defined by choice RT task, SPCD p=0.005) was “robust and significant improvement over placebo”. For the same molecule, the “Clinical Global Impression (CGI) severity, 80 mg over placebo” value ([3]; 80 mg/day, poor cognition defined by choice RT, p=0.0002) was “robust and significant advantage”, the “change … 80 mg versus placebo” value ([3]; 80 mg/day, poor cognition defined by one-back working memory, SPCD p=0.08) was “trend-level significance” and the “change … 80 mg versus placebo” value ([3]; 80 mg/day, poor cognition defined by simple RT task, SPCD p=0.09) was “trend-level significance”. For the same molecule, the “change in MADRS scores, 80 mg arm versus placebo” value ([3]; 80 mg/day, poor cognition group (cognitive composite score below patient mean), SPCD analysis p=0.014, 6 weeks) was “robust and statistically significant effect”, the “change … 80 mg versus placebo” value ([3]; 80 mg/day, poor cognition on choice RT task, cutoff z=0, p=0.007) was “significant superiority over placebo” and the “change … 80 mg versus placebo” value ([3]; 80 mg/day, poor cognition on choice RT task, cutoff z=-0.5, p=0.009) was “significant superiority over placebo”. The “remission rate (score of 10 or less on the MADRS)” value ([3]; 80 mg/day, poor cognition patients (composite score), 6 weeks, stage 1, chi-square p=0.017 vs placebo) was 47%, the “Clinical Global Impression (CGI) severity, 80 mg versus placebo” value ([3]; 80 mg/day, poor cognition patients (composite score), p=0.002) was “significantly more effective than placebo” and the “symptom change on the HDRS, 80 mg over placebo” value ([3]; 80 mg/day, poor cognition patients (composite score), p=0.038) was “significantly greater efficacy”. For the same molecule, the “benefit in terms of remission rate” value ([3]; good cognition group, 6 weeks, stage 1) was “No benefit”, the “MADRS depression score, difference between treatment arms” value ([3]; patients with poor self-reported cognition (CPFQ score >25)) was “no difference is seen between treatment arms” and the “Cohen's d effect sizes (MADRS, HDRS, CGI), 80 mg versus placebo” value ([3]; week 6, stage 1 and stage 2, poor cognition subpopulation relative to all-comer sample) was “effect sizes increase substantially”.
